Data set [1] in a line: Relaxivity measurements at 1.41 T in water and human plasma. Format: physicochemical. The note with it: 37° C., normalized to Gd. Here is the method:
Relaxivity measurements at 1.41 T were performed using a MiniSpec mq60 spectrometer (Bruker Analytik, Karlsruhe, Germany) operating at a resonance frequency of 60 MHz and a temperature of 37° C. The T1 relaxation times were determined using the standard inversion recovery (IR) method with a fixed relaxation delay of at least 5×T1. The variable inversion time (TI) was calculated automatically by the standard software of the MiniSpec mq60 (8 steps). The T2 measurements were performed by using a Carr-Purcell-Meiboom-Gill (CPMG) pulse sequence, applying a relaxation delay of at least 5×T1.
Each relaxivity measurement was performed using three different Gd concentrations (3 concentrations between 0.05 and 2 mM). The T1 and T2 relaxation times of the example compounds were measured in water and human plasma. Human plasma preparation: For each experiment fresh blood was taken from a volunteer using 10 mL citrate-tubes (Sarstedt S-Monovette 02.1067.001, 10 mL, Citrate). The 10 mL citrate-tubes were carefully inverted 10 times to mix blood and anticoagulant and centrifuged for 15 min at 1811 g at RT (Eppendorf, Centrifuge 5810R).
The relaxivities ri (where i=1, 2) were calculated based on the measured relaxation rates Ri in water and plasma:
where Ri(0) represent the relaxation rate of the respective solvent and CGd the concentration of the compound normalized to the Gadolinium. The Gadolinium concentrations of the investigated solutions were verified by Inductively Coupled Plasma Mass Spectrometry (ICP-MS Agilent 7500a, Waldbronn, Germany).

Data set [2] concerns freshly isolated rat hepatocytes. In words: Uptake into freshly isolated rat hepatocytes. Type of data set: cell-based. The conditions noted are these: uptake with OATP1B1/1B3 inhibitor Rifampicine 1:1, each 100 uM. Here is the method: Freshly isolated rat hepatocytes were received as described before (Papeleu P. et al. (2006) Isolation of Rat Hepatocytes. In: Phillips I. R., Shephard E. A. (eds) Cytochrome P450 Protocols. Methods in Molecular Biology, vol 320. Humana Press, Totowa, NJ. https://doi.org/10.1385/1-59259-998-2:229). The rat hepatocytes were incubated (2.5·10^5 cells/well) for 2.5 to 4 h in collagen coated 24-well plates (Fa. Beckton Dickinson Biocoat, cell environments, Collagen I Cellware) in Williams E-medium (Fa. Sigma W1878) in an incubator (37° C., 5% CO2 and […]). After incubation the adherent hepatocytes were washed once with 37° C. Hepes carbonate transport buffer (500 μL/well). The test items and RC3 were prepared from stock solutions (180 to 500 mM concentration) in Hepes carbonate transport buffer at pH 7.4 to reach a final concentration of 100 μmol Gd/L. The specific uptake of the test item or RC3 into rat hepatocytes via OATP1B1 and OATP1B3 was challenged using a known OATP1B1/1B3 inhibitor (Rifampicine, Fa. Sigma R3501, test item and inhibitor 1:1 each 100 µM final concentration). The prepared rat hepatocyte plates were incubated with test solutions (500 μL/well) at 37° C. for 10 min using a thermoshaker (Fa. Grant Bio, PHMP). Triplicates were performed for each test item. After incubating the cells were washed once with cold PBS buffer (Fa. Gibco, Dulbeccos PBS (+)). After washing the intact hepatocytes were lysed by addition of 500 μL cold 0.01% Triton-X 100 in Millipore water for 1 h. The strongly hypo-osmolar water led to cell membrane rupture and the release of the intracellular Gd-compound. After 1 h 500 μL of 10 nM Terbium ICP-MS standard was added in 2% nitric acid and 0.01% Triton 100 before the Gadolinium concentrations in the lysate were measured using ICP-MS (Agilent 8900, singleQuad, integr. Time 0.3 s, no gas, 5 replicates, Gd m/z 157, Tb m/z 159). As a reference standard RC3 is used in the same well plate. The hepatocyte uptake of the test compound is calculated relative to RC3 (resulting in the unit % of RC3).

The record followed here is patent publication US20260077069A1, “COMBINATIONS OF CONTRAST AGENTS” (BAYER AKTIENGESELLSCHAFT, priority 2022, published 2026).

For the compound `CCOCCOc1ccc(CC2CN(CC(=O)[O-])CCN(CC(=O)[O-])CCN(CC(=O)[O-])CCN2CC(=O)O)cc1.[Gd+3]` (stereo not shown) [Compound 22], in data set [1], the r1 human plasma was 6.6 L/mmol/s and the r1 water is 4.8 L/mmol/s. In data set [2], the “Inhibition Rifampicine” value worked out at 94 % inhibition.

As for `CCCCOc1ccc(CCCC(C(=O)O)N2CCN(CC(=O)O)CCN(CC(=O)O)CCN(CC(=O)O)CC2)cc1` (stereo not shown) [Compound 18], in data set [1], the r1 human plasma was 15.8 L/mmol/s and the r1 water was determined as 4.4 L/mmol/s. In addition, the “Inhibition Rifampicine” value in data set [2] is 94 % inhibition.

In data set [1], `CCOCCOCCOc1ccc(CCC[C@H](C(=O)O)N2CCN([C@H](CO)C(=O)[O-])CCN([C@H](CO)C(=O)[O-])CCN([C@H](CO)C(=O)[O-])CC2)cc1.[Gd+3]` [Compound 16] came in with a r1 human plasma of 9.0 L/mmol/s and a r1 water of 5.3 L/mmol/s. The “Inhibition Rifampicine” value in data set [2] stood at 92 % inhibition.

In data set [1], `CCCCOc1ccc(CC(C(=O)[O-])N2CCN(CC(=O)[O-])CCN(CC(=O)[O-])CCN(CC(=O)O)CC2)cc1.[Gd+3]` (stereo not shown) [Compound 14] yielded a r1 human plasma of 13.3 L/mmol/s and a r1 water of 4.3 L/mmol/s. For the same compound, in data set [2], the “Inhibition Rifampicine” value was 98 % inhibition.

For `O=C([O-])CN1CCN(CC(=O)[O-])CCN(CC(=O)NCC(CNC(=O)CN2CCN(CC(=O)[O-])CCN(CC(=O)[O-])CCN(CC(=O)[O-])CC2)(CNC(=O)CN2CCN(CC(=O)[O-])CCN(CC(=O)[O-])CCN(CC(=O)[O-])CC2)CNC(=O)CN2CCN(CC(=O)[O-])CCN(CC(=O)[O-])CCN(CC(=O)[O-])CC2)CCN(CC(=O)[O-])CC1.[Gd+3].[Gd+3].[Gd+3].[Gd+3]` [Compound 10], in data set [1], the r1 human plasma stood at 9.7 L/mmol/s and the r1 water turned out to be 7.3 L/mmol/s.

In data set [1], `CC(C(=O)NCC(=O)NCC(CNC(=O)CNC(=O)C(C)N1CCN(CC(=O)[O-])CCN(CC(=O)[O-])CCN(CC(=O)[O-])CC1)C(=O)NCCN(CCNC(=O)C(CNC(=O)CNC(=O)C(C)N1CCN(CC(=O)[O-])CCN(CC(=O)[O-])CCN(CC(=O)[O-])CC1)CNC(=O)CNC(=O)C(C)N1CCN(CC(=O)[O-])CCN(CC(=O)[O-])CCN(CC(=O)[O-])CC1)C(=O)CNC(=O)C(C)N1CCN(CC(=O)[O-])CCN(CC(=O)[O-])CCN(CC(=O)[O-])CC1)N1CCN(CC(=O)[O-])CCN(CC(=O)[O-])CCN(CC(=O)[O-])CC1.[Gd+3].[Gd+3].[Gd+3].[Gd+3].[Gd+3]` (stereo not shown) [Compound 1] had a r1 human plasma of 13.0 L/mmol/s and a r1 water of 11.1 L/mmol/s.

Consider `CC(C(=O)NCC(=O)N1CCN(C(=O)CNC(=O)C(C)N2CCN(CC(=O)[O-])CCN(CC(=O)[O-])CCN(CC(=O)[O-])CC2)CCN(C(=O)CNC(=O)C(C)N2CCN(CC(=O)[O-])CCN(CC(=O)[O-])CCN(CC(=O)[O-])CC2)CCN(C(=O)CNC(=O)C(C)N2CCN(CC(=O)[O-])CCN(CC(=O)[O-])CCN(CC(=O)[O-])CC2)CC1)N1CCN(CC(=O)[O-])CCN(CC(=O)[O-])CCN(CC(=O)[O-])CC1.[Gd+3].[Gd+3].[Gd+3].[Gd+3]` (stereo not shown) [Compound 7], for which, in data set [1], the r1 human plasma is 12.1 L/mmol/s and the r1 water was 10.8 L/mmol/s.

With `CCCC(C(=O)[O-])N1CCN(CC(=O)[O-])CCN(C(Cc2ccc(OCC)cc2)C(=O)O)CCN(CC(=O)[O-])CC1.[Gd+3]` (stereo not shown) [Compound 17], in data set [1], the r1 human plasma came to 7.5 L/mmol/s and the r1 water was 4.4 L/mmol/s. Further, the “Inhibition Rifampicine” value in data set [2] is 99 % inhibition.

In data set [1], `CCOCCOCCOc1ccc(CCC[C@@H](C(=O)O)N2CCN([C@@H](CO)C(=O)[O-])CCN([C@@H](CO)C(=O)[O-])CCN([C@@H](CO)C(=O)[O-])CC2)cc1.[Gd+3]` [Compound 15] showed a r1 human plasma of 8.7 L/mmol/s and a r1 water of 5.1 L/mmol/s. Moreover, the “Inhibition Rifampicine” value in data set [2] came out at 94 % inhibition.

Consider `CCOc1ccc(CC2CN(CC(=O)[O-])CCN(CC(=O)[O-])CCN(CC(=O)O)CCN2CC(=O)[O-])cc1.[Gd+3]` (stereo not shown) [Compound 23], for which, in data set [1], the r1 human plasma is 6.2 L/mmol/s and the r1 water was 4.5 L/mmol/s. The “Inhibition Rifampicine” value in data set [2] is recorded as 96 % inhibition.

Compound `O=C([O-])CN1CCN(CC(=O)[O-])CCN(CC(=O)N2CCN(C(=O)CN3CCN(CC(=O)[O-])CCN(CC(=O)[O-])CCN(CC(=O)[O-])CC3)CC(C(=O)N3CC4CN(C(=O)C5CN(C(=O)CN6CCN(CC(=O)[O-])CCN(CC(=O)[O-])CCN(CC(=O)[O-])CC6)CCN(C(=O)CN6CCN(CC(=O)[O-])CCN(CC(=O)[O-])CCN(CC(=O)[O-])CC6)C5)CC(C3)N4)C2)CCN(CC(=O)[O-])CC1.[Gd+3].[Gd+3].[Gd+3].[Gd+3]` [Compound 9] had a r1 water in data set [1] of 7.4 L/mmol/s.

As to `CC(C(=O)NCC(=O)NCC(NC(=O)CNC(=O)C(C)N1CCN(CC(=O)[O-])CCN(CC(=O)[O-])CCN(CC(=O)[O-])CC1)C(=O)N1CC23CN(C(=O)C(CNC(=O)CNC(=O)C(C)N4CCN(CC(=O)[O-])CCN(CC(=O)[O-])CCN(CC(=O)[O-])CC4)NC(=O)CNC(=O)C(C)N4CCN(CC(=O)[O-])CCN(CC(=O)[O-])CCN(CC(=O)[O-])CC4)CC2(C1)CN(C(=O)C(CNC(=O)CNC(=O)C(C)N1CCN(CC(=O)[O-])CCN(CC(=O)[O-])CCN(CC(=O)[O-])CC1)NC(=O)CNC(=O)C(C)N1CCN(CC(=O)[O-])CCN(CC(=O)[O-])CCN(CC(=O)[O-])CC1)C3)N1CCN(CC(=O)[O-])CCN(CC(=O)[O-])CCN(CC(=O)[O-])CC1.[Gd+3].[Gd+3].[Gd+3].[Gd+3].[Gd+3].[Gd+3]` (stereo not shown) [Compound 8], in data set [1], the r1 human plasma came out at 14.6 L/mmol/s and the r1 water came out at 12.5 L/mmol/s.

`C[C@H](C(=O)NCC(=O)N1CCN(C(=O)CNC(=O)[C@@H](C)N2CCN(CC(=O)[O-])CCN(CC(=O)[O-])CCN(CC(=O)[O-])CC2)CC(C(=O)NCCN(CCNC(=O)C2CN(C(=O)CNC(=O)[C@@H](C)N3CCN(CC(=O)[O-])CCN(CC(=O)[O-])CCN(CC(=O)[O-])CC3)CCN(C(=O)CNC(=O)[C@@H](C)N3CCN(CC(=O)[O-])CCN(CC(=O)[O-])CCN(CC(=O)[O-])CC3)C2)C(=O)C2CN(C(=O)CNC(=O)[C@@H](C)N3CCN(CC(=O)[O-])CCN(CC(=O)[O-])CCN(CC(=O)[O-])CC3)CCN(C(=O)CNC(=O)[C@@H](C)N3CCN(CC(=O)[O-])CCN(CC(=O)[O-])CCN(CC(=O)[O-])CC3)C2)C1)N1CCN(CC(=O)[O-])CCN(CC(=O)[O-])CCN(CC(=O)[O-])CC1.[Gd+3].[Gd+3].[Gd+3].[Gd+3].[Gd+3].[Gd+3]` [Compound 5]: in data set [1], the r1 human plasma was 14.3 L/mmol/s and the r1 water worked out at 13.0 L/mmol/s.

Consider `CC(C(=O)NCC(=O)NCC(CNC(=O)CNC(=O)C(C)N1CCN(CC(=O)[O-])CCN(CC(=O)[O-])CCN(CC(=O)[O-])CC1)C(=O)NCCN(CCNC(=O)C(CNC(=O)CNC(=O)C(C)N1CCN(CC(=O)[O-])CCN(CC(=O)[O-])CCN(CC(=O)[O-])CC1)CNC(=O)CNC(=O)C(C)N1CCN(CC(=O)[O-])CCN(CC(=O)[O-])CCN(CC(=O)[O-])CC1)C(=O)C(CNC(=O)CNC(=O)C(C)N1CCN(CC(=O)[O-])CCN(CC(=O)[O-])CCN(CC(=O)[O-])CC1)CNC(=O)CNC(=O)C(C)N1CCN(CC(=O)[O-])CCN(CC(=O)[O-])CCN(CC(=O)[O-])CC1)N1CCN(CC(=O)[O-])CCN(CC(=O)[O-])CCN(CC(=O)[O-])CC1.[Gd+3].[Gd+3].[Gd+3].[Gd+3].[Gd+3].[Gd+3]` (stereo not shown) [Compound 2], for which, in data set [1], the r1 human plasma was 13.9 L/mmol/s and the r1 water came out at 12.1 L/mmol/s.
